Where a name gives a salt, the structure may show the parent alone.

The term inhibition denotes the change of the read-out against control, counted positive when it falls.

The target of assay [1] is T1, human platelet membranes (3H-imipramine receptor) (Homo sapiens, UniProt P31645).
T1 construct: Fresh human platelet concentrates (less than 48 hours old) were obtained from the New York Blood Center; tissue New York Blood Center; host or cells: human blood platelets, membranes
The assay is described as follows: 3H-imipramine binding to human platelet membranes. The protocol:
The activity of the compounds of the invention as antidepressant agents was further verified# in the following test which measures the ability of a test compound to inhibit 3H-imipramine binding to human platelet membranes.
Platelet membranes were obtained using the procedure described by Wennogle, L. et al., Pharmac. Biochem. Behav., 15. 975 (1981). Fresh human platelet concentrates (less than 48 hours old) were obtained from the New York Blood Center. These concentrates were prepared in a citrate-dextrose anticoagulant using standard techniques. Platelets were washed twice by centrifugation (2500×G, 10 minutes) in 50 volumes of an antiprotease buffer containing 0.005M Tris potassium chloride, 0.12M sodium chloride, 0.05M Tris pH 7.5, 0.025 Units/ml aprotinin, 0.05 μg/m pepstatin, 2×10^-5 bacitracin, 3 mM ethylenediaminetetraacetic acid and 1.0 mM ethyleneglycol-bis (β-aminoethylether)N,N'-tetra-acetic acid. […] All procedures were conducted at 0° C. using plastic laboratory-ware throughout the platelet membrane preparation. Platelets were resuspended in 20 volumes of buffer and sonicated 3 times using 10 second bursts of a Branson sonifier (cell disrupter 350) at setting 6 (standard 3/4 inch horn), keeping the sample on ice throughout the procedure. Platelet membranes were then washed twice at 18,000×G for 20 minutes with 50 volumes of the antiprotease buffer and resuspended to 3.0 mg. protein/ml using the Bradford protein analysis with bovine gamma globulin as standard. Membranes were used immediately or stored frozen in liquid nitrogen.
The displacement of 3H-imipramine binding to human platelet membranes was performed essentially as described by Paul, S. M., et al., Life Sci., 953 (1980) with the following modifications. Membranes (0.3 mg protein) were suspended in antiprotease buffer with both […] 3H-imipramine (New England Nuclear) and displacing drug or buffer in a total volume of 250 #1 in glass test tubes. Samples were incubated for 90 minutes at 0° C., then diluted to 5 ml in 0.12M sodium chloride, 0.005M potassium chloride, 0.05M Tris pH 7.5 (wash buffer) and immediately filtered through GF/B Whatman Filters and washed twice with 5 ml of wash buffer. Filters were counted in a liquid scintillation counter after addition of Beckman HP Scintillant.
Non-specific binding of 3H-imipramine was defined as that fraction (generally 35%) of radioactivity that was not displaced by 10 μM desmethylimipramine. Specific binding was determined by subtraction of this non-specific level from values for total 3H-imipramine binding which were measured by incubating 3H-imipramine in the absence of displacing drug. Compounds were tested in duplicate test tubes at a concentration of 10 μM. Compounds which inhibited binding by more than 50% were considered to be active.

Assay [2] relates to Brain-Specific Receptors of Rats (3H-benzodiazepine binding). The assay is described as follows: Inhibition of the binding of 3H-benzodiazepine to brain-specific receptors of rats. Also on record: species or system rat (Wistar strain, whole cortex). The conditions noted are these: rat cortex P2 fraction, 3H-diazepam 1.5 nM or 3H-flunitrazepam 1.0 nM. An excerpt:
Another test utilized for the determination of anxiolytic activity is the measurement of the ability of a test compound to inhibit the binding of tritiated benzodiazepines to brain-specific receptors of mammals. A modification of the method described by R. F. Squires, et al., Nature, 266 (21), 732 (Apr., 1977) and H. Mohler, et al., Science, 198, 849 (1977) was employed. […] The test compounds were solubilized in dimethylformamide, acetic acid, ethanol or hydrochloric acid. […] (1) resuspended in twice the original volume in hypotonic 50 mM Tris.HCl (pH 7.4), or (2) resuspended in one-half the original volume in hypotonic 10 mM Tris.HCl (pH 7.4) and frozen (-20° C.) until time. of use. Frozen P2 preparations were thawed and resuspended in four times the original homogenizing volume at time of assay. […] Incubation for 30 minutes proceeded in ice and was terminated by filtration, under vacuum, through glass fiber filters. The filters were washed twice with 5 ml of ice-cold 50 mM Tris.HCl (pH 7.4) and placed in scintillation vials. After drying at 50°-60° C. for 30 minutes, 10 ml of diluent was added and the radioactivity determined in a scintillation counter. Inhibition of binding was calculated by the difference between total binding and binding in the presence of test compound, divided by the total binding, X 100.

The test system of assay [3] is Spontaneously Hypertensive Rats. The assay is described as follows: Hypotensive activity: mean arterial blood pressure in spontaneously hypertensive rats. The conditions noted are these: SHR, gavage, 100 mg/kg or less, two doses 24 h apart, measured at 28 hours; average MABP of rats used 160±1.5 mm. The assay is classed as in vivo, rat (Okamoto strain, male). The protocol:
The novel compounds of the invention are active hypotensive agents at nontoxic doses when administered to mammals. These compounds were tested for hypotensive activity by the method of P. S. Chan and D. W. Poorvin, Clinical and Experimental Hypertension, (6), 817-830 (1979). Male, 16 week old, spontaneously hypertensive rats of the Okamoto strain (Taconic Farms, Germantown, N.Y.) having an average means arterial blood pressure of 160±1.5 mm of mercury are used in the test. A rat is dosed by gavage with a test compound, suspended in 2% pre-boiled starch at a concentration of 50 mg/ml, at a dose of 100 mg/kg of body weight or less, with 0.9% sodium chloride loading at a dose of 25 ml/kg of body weight. A second identical dose of the test compound, without sodium chloride loading is given 24 hours later. At 28 hours after the initial dose the mean arterial blood pressure is measured by the method of Chan and Poorvin vide supra.

The test system of assay [4] is mice (hypoxic environment). Nature of the assay: Hypoxic survival test. The conditions noted are these: intraperitoneal, 10% oxygen, 5 minutes. It counts as in vivo, mouse (Royal Hart). In outline: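 Groups of 20 Royal Hart mice (6 weeks old) dosed i.p. with compound in saline at 1–200 mg/kg, 30 minutes before exposure to 10% oxygen/90% carbon dioxide; survival scored after 5 minutes. Saline and physostigmine (0.125 mg/kg i.p.) groups run in parallel.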

In assay [5] the test system is mice (anoxic induced amnesia). Nature of the assay: Passive Avoidance Anoxic Induced Amnesia Test. The assay is classed as in vivo, mouse (Swiss-Webster, middle-aged). The conditions noted are these: intraperitoneal, vs saline control. An excerpt: A useful in vivo test associated with decreased neural function in mammals is the Passive Avoidance Anoxic Induced Amnesia Test. This test is used to determine the attenuation of anoxic induced amnesia in mice treated with drug, as compared to saline treated control animals with no drug. A shock-motivated, single trial, step-through passive avoidance procedure is used. Groups of 25 Swiss-Webster, middle-aged mice (9 months of age) are placed singly in the front chamber of a 2-chamber box and are allowed to voluntarily cross into the rear chamber. As soon as the mouse enters the rear chamber, a door automatically traps the animal and a mild electric shock (0.4 mA for 4 seconds) is delivered to its feet. Following the foot shock, the mice are initially placed in an anoxic environment (0% oxygen) for 12 seconds, which quickly induces unconsciousness. […] All testing is performed 24 hours later, and in all cases the mice appear fully recovered from the previous anoxic/hypoxic treatment. […] Control animals are injected intraperitoneally only with saline at 0.01 ml/g of body weight. The latent period prior to entering the rear chamber is recorded for both training and testing sessions. The greater the memory of being shocked, the greater the reluctance to enter into the rear chamber and the higher will be the latent period prior to re-entry. […]

T1 sequence (P31645 whole entry): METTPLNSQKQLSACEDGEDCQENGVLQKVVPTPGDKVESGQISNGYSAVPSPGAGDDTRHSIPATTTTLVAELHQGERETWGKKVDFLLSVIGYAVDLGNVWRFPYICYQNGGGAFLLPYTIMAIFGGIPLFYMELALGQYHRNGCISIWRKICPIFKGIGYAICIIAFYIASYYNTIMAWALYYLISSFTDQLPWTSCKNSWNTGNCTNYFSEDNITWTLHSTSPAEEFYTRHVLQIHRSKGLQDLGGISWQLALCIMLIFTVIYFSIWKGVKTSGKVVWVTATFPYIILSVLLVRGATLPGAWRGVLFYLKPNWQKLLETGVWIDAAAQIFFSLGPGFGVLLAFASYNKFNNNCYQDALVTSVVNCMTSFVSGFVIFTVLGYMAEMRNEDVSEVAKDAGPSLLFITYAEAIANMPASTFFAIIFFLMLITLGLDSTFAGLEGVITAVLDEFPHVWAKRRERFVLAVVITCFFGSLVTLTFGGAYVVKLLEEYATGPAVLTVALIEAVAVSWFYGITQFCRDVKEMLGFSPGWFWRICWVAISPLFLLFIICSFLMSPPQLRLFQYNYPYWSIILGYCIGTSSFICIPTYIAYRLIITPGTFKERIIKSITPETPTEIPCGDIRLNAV

As to `N#Cc1cnn2c1N(C(=O)CCN1CCN(Cc3ccccc3)CC1)CC=C2c1cccc(C(F)(F)F)c1` [Example 27, 4,5-Dihydro-4-[1-oxo-3-[4-(phenylmethyl)-1-piperazinyl]propyl]-7-[3-(trifluoromethyl)phenyl]pyrazolo[1,5-a]pyrimidine-3-carbonitrile], the inhibition at 10 µM in assay [1] was determined as 80%.

In the case of `CN(C)CCCN1CCN(CC(=O)N2CC=C(c3cccc(C(F)(F)F)c3)n3ncc(C#N)c32)CC1` [Example 33, 4-[[4-[3-(Dimethylamino)propyl]-1-piperazinyl]acetyl]-4,5-dihydro-7-[3-(trifluoromethyl)phenyl]pyrazolo[1,5-a]pyrimidine-3-carbonitrile], the inhibition at 10 µM in assay [1] was determined as 89%.

With `N#Cc1cnn2c1N(C(=O)CN1CCN(CC(=O)N3CCOCC3)CC1)CC=C2c1cccc(C(F)(F)F)c1` [Example 36, 4,5-Dihydro-4-[[4-[2-(4-morpholinyl)-2-oxoethyl]-1-piperazinyl]acetyl]-7-[3-(trifluoromethyl)phenyl]pyrazolo[1,5-a]pyrimidine-3-carbonitrile], the “% Inhibition (3H-benzodiazepine binding)” value in assay [2] is 41%. Further, the “MABP/mmHg (mean arterial blood pressure)” value in assay [3] is on record as 129 mmHg.

With `CC(C)NC(=O)CN1CCN(CC(=O)N2CC=C(c3cccc(C(F)(F)F)c3)n3ncc(C#N)c32)CC1` [Example 37], in assay [2], the “% Inhibition (3H-benzodiazepine binding)” value is 41%. In addition, the “MABP/mmHg (mean arterial blood pressure)” value in assay [3] is 129 mmHg.

In assay [1], `N#Cc1cnn2c1N(C(=O)CN1CCN(Cc3ccc(Cl)cc3)CC1)CC=C2c1cccc(C(F)(F)F)c1` [Example 39, 4-[[4-[(4-Chlorophenyl)methyl]-1-piperazinyl]acetyl]-7-[3-(trifluoromethyl)phenyl]pyrazolo[1,5-a]pyrimidine-3-carbonitrile] showed an inhibition at 10 µM of 84%.

`N#Cc1cnn2c1N(C(=O)CN1CCN(CCCOc3ccccc3)CC1)CCC2c1cccc(C(F)(F)F)c1` (centres unmarked) [Example 57, 4,5,6,7-Tetrahydro-4-[[4-(3-phenoxypropyl)-1-piperazinyl]acetyl]-7-[3-(trifluoromethyl)phenyl]pyrazolo[1,5-a]pyrimidine-3-carbonitrile] gave an inhibition at 10 µM in assay [1] of 57%. Further, in assay [4] (Mus musculus, ip, 5 min, 10 mg/kg, read-out: % Survivors), the responders at 10 mg/kg came to 15%.

With `N#Cc1cnn2c1N(C(=O)CCN1CCN(Cc3ccccc3)CC1)CC=C2c1cc(Cl)ccc1Cl` [Example 71, 7-(2,5-Dichlorophenyl)-4,5-dihydro-4-[1-oxo-3-[4-(phenylmethyl)-1-piperazinyl]propyl]pyrazolo[1,5-a]pyrimidine-3-carbonitrile], testing at 10 µM in assay [1] gave an inhibition of 79%.

In assay [1], `N#Cc1cnn2c1N(C(=O)CCN1CCN(Cc3ccc(Cl)cc3)CC1)CC=C2c1cccc(C(F)(F)F)c1` [Example 85, 4-[3-[(4-Chlorophenyl)methyl]-1-piperazinyl]-1-oxopropyl]dihydro-7-[3-(trifluoromethyl)phenyl]pyrazolo[1,5-a]pyrimidine-3-carbonitrile, dihydrochloride] showed an inhibition at 10 µM of 85%.

Regarding `Cl.N#Cc1cnn2c1N(C(=O)CN1CCN(Cc3ccccc3)CC1)CC=C2c1cccc(C(F)(F)F)c1` [Example 94, 4,5-Dihydro-4-[[4-(phenylmethyl)-1-piperazinyl]acetyl]-7-[3-(trifluoromethyl)phenyl]pyrazolo[1,5-a]pyrimidine-3-carbonitrile, hydrochloride], the “% Survivors” value in assay [4] (100 mg/kg) is 83%. In addition, the “% Improvement” value in assay [5] (10 mg/kg) was 30%.

As for `CN(C)CCN1CCN(CC(=O)N2CC=C(c3cccc(C(F)(F)F)c3)n3ncc(C#N)c32)CC1` [Example 97, 4-[[4-[2-(Dimethylamino)ethyl]-1-piperazinyl]acetyl]4,5-dihydro-7-[3-(trifluoromethyl)phenyl]pyrazolo[1,5-a]pyrimidine-3-carbonitrile. dihydrochloride], the inhibition at 10 µM in assay [1] was 72%.

Turning to `N#Cc1cnn2c1N(C(=O)CN1CCN(C(=O)Nc3ccccc3)CC1)CC=C2c1cccc(C(F)(F)F)c1` [Example 99, 4-[2-[3-Cyano-7-[3-(trifluoromethyl)phenyl]pyrazolo-[1,5-a]pyrimidin-4(5H)-yl]-2-oxoethyl]-N-phenyl-1-piperazinecarboxamide], the “% Inhibition (3H-benzodiazepine binding)” value in assay [2] was determined as 24%. In addition, the “MABP/mmHg (mean arterial blood pressure)” value in assay [3] turned out to be 125 mmHg.

On to `COc1ccc(Cl)cc1NC(=O)CN1CCN(CC(=O)N2CC=C(c3cccc(C(F)(F)F)c3)n3ncc(C#N)c32)CC1` [Example 100, N-(5-Chloro-2-methoxyphenyl)-4-[2-[3-cyano-7-[3-(trifluoromethyl)phenyl]pyrazolo[1.5-a]pyrimidin-4(5H)-yl]-2-oxoethyl]-1-piperazineacetamide], for which the “% Inhibition (3H-benzodiazepine binding)” value in assay [2] is recorded as 15%. For the same compound, the “MABP/mmHg (mean arterial blood pressure)” value in assay [3] turned out to be 139 mmHg.

Turning to `N#Cc1cnn2c1N(C(=O)CN1CCN(CC#CCN3CCCC3=O)CC1)CC=C2c1cccc(C(F)(F)F)c1` [Example 109, 4,5-Dihydro-4-[[4-[4-(2-oxo-1-pyrrolidinyl)-2-butynyl]-1-piperazinyl]acetyl]-7-[3-(trifluoromethyl)phenyl]pyrazolo[1.5-a]pyrimidine-3-carbonitrile], the responders at 100 mg/kg in assay [4] (Mus musculus, ip, 5 min, 100 mg/kg, read-out: % Survivors) was 68%. The “% Improvement” value in assay [5] (1 mg/kg) was determined as 63%.

The values above are taken from patent US4963553A, “4-[(substituted) alkylcarbonyl]-4,5-dihydro- and -4,5,6,7-tetrahydro-7-[(substituted)phenyl]pyrazolo[1,5-a]pyrimidines” (American Cyanamid Co., priority 1988, dated 1990).
